Source: patent publication US5395611A, “Phenolic amine depigmenting and antimelanoma agents” (The Governors of the University of Alberta, priority 1992, dated 1995)
Several values for one entry are separate records, joined by “and”; a condition that tells them apart may be missing. Equal entries are not always repeated.

Key:
[1] = test system: black guinea pig skin; settings: topical application, cited from earlier work
[2] = in words; cited from earlier work
[3] = test system: B16F10 melanoma colonies; assay: Melanoma-colony formation in the lungs; type: in vivo, mouse
Description: Murine B16F10 melanoma cell line with a strong metastatic property to form tumour colonies in the lungs was obtained from Dr. Longenecker, Department of Immunology, University of Alberta. Such cell line is well recognized and readily available as reported in Miura et al, supra. The cells were grown in T-75 flasks in dulbecco's MEM available from Gipco Lab Inc., Grand Island, N.Y., supplemented with 10% fetal calf serum, also obtained from Gipco, penicillin (100 μ/ml) and streptomycin (100 μg/ml). The cells were incubated at 37° C. in humidified atmosphere of 5% CO2 in air. […] Viable cells were identified by trypan blue dye exclusion and counted. The cell suspension was diluted to the desired concentration. […] On day zero, the mice were inoculated via the lateral tail vein with 5×10^4 cells in 0.2 ml of N saline. The test drugs were dissolved in normal saline, sterilized by membrane filtration, and administered in a dose of 300 mg/Kg (4 -S-CAP) or 900 mg/Kg (N-Ac-4-S-CAP); starting on day five, the control solution or drug was injected i.p. daily for 14 days. On day 26, the mice were killed by cervical dislocation, their lungs were removed, and the number of melanoma colonies was counted under a dissecting microscope. The results were expressed as percentage reduction in the number of colonies: [a-b/a]×100, where a=colonies in control group and b=colonies in experimental group.

[4] = test system: black hair follicles; assay: Depigmentation of new hair (eumelanin/PTCA content); type: in vivo, C57BL/6J black mice
Description: Female progeny were used in this testing when approximately 8 weeks old and weighing 17 grams.
Thirty mice were randomized into 6 groups of 5 (1 control and 1 for each compound). Starting on day 1, daily for 14 days the agent was injected i.p. or was infiltrated s.c. in an area where hair follicles had been plucked; the dose was 300 mg/kg body weight.
In the same 30 mice, hair follicles were harvested on day 22 (early telogen phase) and their eumelanin content analyzed. […] Briefly, a 10-mg hair sample is homogenized in water at a concentration of 10 mg/ml; the 200-μl homogenate is transferred to a screw-capped test tube, mixed with 1M H2 SO4 (800 μL) and oxidized with 3% KMnO4. The product, pyrrole-2,3,5-tricarboxylic acid (PTCA), is analyzed by HPLC with a UVL detector; samples are measured in duplicate. The eumelanin content is expressed as PTCA (ng/mg) against the PCTA content of BALB/c albino mice as control (≤10 ng/mg, the background value with our method, in which 1 ng corresponds roughly to a eumelanin content of 50 ng), and the degree of depigmentation is expressed as a percentage: (PTCA content of control sample minus PTCA content of experimental sample)/(PCTA content of control sample)×100.

[5] = test system: plasma monoamine oxidase (MAO); assay: Enzyme kinetics for monoamineoxidase (plasma MAO); type: biochemical
Description: (§1) Mushroom tyrosinase (400 units/mg) and plasma MAO (1000 units/gm) were obtained from Sigma Chemical Co. (St. Louis, Mo., USA). A reaction mixture consisted of a substrate of 7 to 8 different concentrations (40 to 500 μM for mushroom tyrosinase and 20 to 200 μM for MAO) and of either mushroom tyrosinase (2.5 μg) or MAO (10 μg) in 1.0 mL of 0.05M sodium phosphate buffer, pH 6.8 and 7.4 respectively. The reactions were carried out at 37° C. in a shaking water bath, and stopped by taking 100 μL of the reaction mixture and adding it to 900 μL of 0.4M HCLO4. The disappearance of substrate was followed using HPLC (high pressure liquid chromatography) Km and Vmax values were calculated from the Lineweaver-Burk plots.

[6] = test system: mushroom tyrosinase; assay: Enzyme kinetics for tyrosinase; type: biochemical
Description: as §1
^a mushroom tyrosinase; 11 unit/ml of tyrosinase was used. One enzyme
unit will cause an increase in A280 of 0.001 per min at pH 6.8 at
25° C. using Ltyrosine as substrate.

[7] = test system: B16 melanoma; assay: In vivo growth inhibition of s.c. inoculated B16 melanoma; set-up: species or system mouse; settings: for % Gi (growth inhibition): 200 mg/Kg
Description: Briefly, excised tumours were homogenized in normal saline.
The in vivo antimelanoma effect of the compounds were evaluated by percent growth inhibition of inoculated tumour (% g.i.). The percent g.i. was computed from the mean tumour volume at day 12 or 13 of the experiments; i.e., 100× (1- treated group/control group). Tumour volume was calculated by the following formula:
tumour volume=long axis×(short axis)^2 ×1/2.

[8] = in vivo; settings: mouse, ip
Description: 3:1-85 1972. In accordance with this Protocol, ten to fifteen mice were used in each test group. They were weighed and randomized at day one after s.c. inoculation of B16 melanoma cells. From day five, the phenolic melanin precursors were administered i.p. daily for nine days. The test compounds were dissolved in normal saline, and sterilized by heating to 100° C. for 2 minutes. […] They were administered j.p. with the following doses: 400 mg/Kg - 4-S-CAP; 200 to 300 mg/Kg - 4-S-CAP; and 200 to 1200 mg/Kg - N-Ac-4-S-CAP. A catalytic amount of L-dopa, 25 mg/Kg and antidecarboxylase, carbidopa, 400 mg/Kg, were also administered. Carbidopa was given one hour prior to L-dopa administration. DTIC (NSC 4538) was used as a control drug at a dose of 60 mg/Kg. Acute toxicity of 4-S-CP and 4-S-CAP was evaluated from 100 to 1600 mg/Kg.
The B16 mouse melanoma was maintained by s.c. inoculation of tumour cells into the back of C57BL7J mice (5 to 6 weeks, female). […] Briefly, excised tumours were homogenized in normal saline. The homogenized tumour cells were then passed through a sterile 80 mesh stainless steel screen, washed with normal saline, centrifuged (500 g. for 10 minutes) and resuspended in normal saline. Suspensions of viable melanoma cells at the concentration of 1×10^6 per 0.1 ml were inoculated s.c. into both the right and left inguinal areas of C57BL/6J mice (female, 5 to 6 weeks old, 18 to 20 gm).

[9] = acute toxicity, evaluated 100 to 1600 mg/Kg (Miura et al); cited from earlier work
[10] = test system: melanoma; settings: in words; cited from earlier work
[11] = test system: melanocytes; assay: Light and electron microscopy of follicular melanocytes; type: in vivo, mice; settings: i.p.
Description: In […] of 4 mice (1 control and 1 for each compound) were treated daily with the control or compound injected i.p. The compounds tested were 4-S-CAP, N-Ac-4-S-CAP and α-Me-4-S-CAP. Samples of skin and regrowing hair follicles were excised under brief general anaesthesia on day 10 (late anagen phase), fixed in Karnovsky's solution (2.5% glutaraldehyde and 2.5% paraformaldehyde in 011M cacodylate buffer), and refixed in 1% osmium tetroxide in cadodylate buffer. Tissues were stained en bloc with 1.5% uranyl acetate in o.1M veronal buffer for 30 min, dehydrated in graded ethanol solutions, embedded in epoxy resin, and sectioned with a Potter-Blum ultramicrotome MT II. Sections 1.0 μm thick were stained with methylene blue for light microscopy, thin sections were stained with led citrate for electron microscopy.

[12] = s.c., 300 mg/kg daily for 14 days, hair day 22

In the case of `NCCSc1ccc(O)cc1` [4-S-CAP, 4-S-cysteaminylphenol, reference compound], the “Inflammatory changes of the skin” value ([1]; guinea pigs) is listed as “inflammatory changes of the skin of the guinea pigs was prominent”, the “Depigmentation of black guinea pig skin” value [1] is listed as “demonstrated depigmenting properties” and the Hypotensive effect [2] is listed as “hypotensive”. The “Colonies, % control” value ([3]; 300 mg/kg i.p. daily for 14 days, day 26) was 32.4% and 30%, the “Number of B16F10 melanoma colonies” value ([3]; in words) was “significantly reduced” and the Depigmentation ([4]; i.p., 300 mg/kg daily for 14 days, hair day 22) was 87%. For the same compound, the “Depigmentation of new growth of black hair follicles” value ([4]; in words) was “i.p. administration induced more depigmentation than s.c”, the Depigmentation [4, 12] was 47% and the “PTCA Content” value [4, 12] was 458.3 ± 107.6 ng/mg. For the same compound, the “Substrate for plasma MAO” value ([5]; in words) was “substrate for both plasma MAO and tyrosinase”, the Km ([5]; plasma MAO, pH 7.4, 37° C.) was 52.6 µM and the Substrate for tyrosinase ([6]; in words) was “substrate for both plasma MAO and tyrosinase”. The Km ([6]; mushroom tyrosinase, pH 6.8, 37° C.) was 117 µM, the “% Gi (growth inhibition)” value ([7]; Experiment I) was 54.0% and the “% Gi (growth inhibition)” value ([7]; Experiment II) was 25.1%. For the same compound, the “Growth inhibition of B16 melanoma” value ([7]; in words) was “greater anti-melanoma effect at 200 mg/Kg than N-Ac-4-S-CAP”, the MTD [8] was 200 to 300 mg/kg and the Lethal dose [9] was 400 mg/kg. The “Inhibition of melanoma growth” value [10] was “exhibited inhibition of melanoma growth”, the “Prolonging lifespan of melanoma-bearing mice” value [10] was “potent agent in prolonging the lifespan of melanoma-bearing mice” and the “Electron microscopy of melanocytes/melanosomes” value ([11]; 10 days) was “contained immature melanosomes at stages II and III”. The “Light microscopy of hair follicles” value ([11]; day 10) was “the hair follicles contained functioning melanocytes and melanin pigments transferred into keratonocytes, although they were much sparser than in the controls”.
